The source of these data is US11932658B2 (BRISTOL-MYERS SQUIBB COMPANY, priority 2016, dated 2024).

Usually IC50 stands for the concentration that inhibits the measured activity by half.

For this experiment, the target named is T1, PAR4 (Homo sapiens, UniProt Q96RI0).
T1 construct: expressed in transfected cells; host or cells: HEK293 PAR4 Clone 1.2A (BMS Arctic ID 383940)
T1 sequence (Q96RI0 18-385): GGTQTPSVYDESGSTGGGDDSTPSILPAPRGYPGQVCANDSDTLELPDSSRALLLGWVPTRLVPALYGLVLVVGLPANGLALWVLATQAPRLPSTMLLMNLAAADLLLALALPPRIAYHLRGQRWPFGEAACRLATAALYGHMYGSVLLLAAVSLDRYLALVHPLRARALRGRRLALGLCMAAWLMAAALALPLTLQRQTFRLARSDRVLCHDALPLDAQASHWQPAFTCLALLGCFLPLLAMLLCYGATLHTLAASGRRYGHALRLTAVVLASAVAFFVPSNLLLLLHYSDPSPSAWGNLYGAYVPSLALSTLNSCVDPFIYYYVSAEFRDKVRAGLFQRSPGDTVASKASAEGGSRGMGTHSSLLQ
Briefly: PAR4 FLIPR assay (antagonism of agonist peptide-induced calcium mobilization). The class given is cell-based. From the text:
The FLIPR assay is an exemplary in vitro assay for measuring the activity of the PAR4 antagonists of the present invention. In this assay, intracellular calcium mobilization is induced in PAR4 expressing cells by a PAR4 agonist and calcium mobilization is monitored.
HEK293 cells stably expressing PAR4 were generated by a standard method of transfection of human PAR4 (F2R23) cDNA expression vector and selected based on PAR4 protein expression or mRNA expression. […] These cells also express endogenous PAR1 and can elicit calcium signal upon stimulation with PAR1 agonist peptide. Therefore, the same cells were also used to determine selectivity against PAR1 and agonist activity for both receptors. Cells from HEK293 PAR4 Clone 1.2A (BMS Arctic ID 383940) were propagated and used for calcium mobilization studies.
FLIPR-based calcium mobilization assay in HEK293 cells was used to measure PAR4 antagonism, agonism, and selectivity against PAR1. The activity of the PAR4 antagonists of the present invention were tested in PAR4 expressing cells by monitoring H-Ala-Phe(4-F)-Pro-Gly-Trp-Leu-Val-Lys-Asn-Gy-NH2-induced intracellular calcium mobilization. Counter screens for agonist activity and PAR1 antagonist activity were also performed. Briefly, PAR1/PAR4-expressing HEK293 cells were grown in DMEM (Life Technology, Grand Island, NY) containing 10% heat-inactivated FBS, 1% Penicillin-Streptomycin, 10 μg/mL blasticidin, and 100 μg/mL Zeocin at 37° C. with 5% CO2. Cells were plated overnight prior to the experiment in a black 384-well Purecoat Amine clear bottom plate (Becton Dickinson Biosciences, San Jose, CA) at 10,000 cells/well in 30 μL growth medium and incubated in a humidified chamber at 37° C. with 5% CO2 overnight. Prior to compound addition, the cell medium was replaced with 40 μL of 1× calcium and magnesium-containing Hank's Balanced Saline Solution (HBSS) (with 20 mM HEPES) and 1:1000 diluted fluorescent calcium indicator (Codex Biosolutions, Gaithersburg, MD). After a 30 minute incubation period at 37° C. and a further 30 minute incubation and equilibration period at room temperature, 20 μL test compound (diluted in 1×HBSS buffer) was added at various concentrations at 0.17% dimethyl sulfoxide (DMSO) final concentration. Changes in fluorescence intensity were measured using a Functional Drug Screening System (FDSS, Hamamatsu, Japan) to determine agonist activities. The cells were then incubated for 30 minutes at room temperature followed by addition of 20 μL of agonist peptide for antagonist activity measurement. […] Compound potency was derived from 11-point concentration-response curves.

On to `COc1cnc2c(-c3nc4ccc5c(c4s3)C[C@@H](C(C)O)O5)cc(C)cc2n1` (mixture of isomers) [Example 190], for which the IC50 was determined as 24 nM.

`COc1cnc2c(-c3nc4cc(F)c5c(c4s3)[C@H](C)[C@H](CO)O5)cc(C)cc2n1` (relative stereo) [Example 199]: the IC50 was 71 nM.

`COc1ccc(NC(=O)OC[C@@H]2COc3c(cc(Cl)c4nc(-c5cc(C)cc6nc(OC)cnc56)sc34)O2)cn1` (single isomer, unassigned) [Example 2]: the 50% inhibitory concentration (IC50) came out at 130 nM.

For `COc1ccc(NC(=O)OC[C@H]2COc3c(cc(C)c4nc(-c5cc(C)cc6nc(OC)cnc56)sc34)O2)cn1` (single isomer, unassigned) [Example 4], the IC50 is 0.8 nM.

Consider `COc1cnc2c(-c3nc4c(C)cc5c(c4s3)OC[C@H](COC(=O)Nc3cccnc3)O5)cc(C)cc2n1` (single isomer, unassigned) [Example 5], for which the 50% inhibitory concentration (IC50) was found to be 1.8 nM.

For `COc1cnc2c(-c3nc4c(Cl)cc5c(c4s3)C[C@H](COC(=O)Nc3ccc(C)nc3)O5)cc(C)cc2n1` (single isomer, unassigned) [Example 20], the 50% inhibitory concentration (IC50) worked out at 3.2 nM.

For `COc1cnc2c(-c3nc4c(Cl)cc5c(c4s3)C[C@@H](COC(=O)Nc3ccc(C)nc3)O5)cc(C)cc2n1` (single isomer, unassigned) [Example 147], the IC50 was 14 nM.

As for `COc1cnc2c(-c3nc4ccc5c(c4s3)C[C@@](C)(CO)O5)cc(C)cc2n1` (single isomer, unassigned) [Example 187], the IC50 is 1.7 nM.

In the case of `COc1cnc2c(-c3nc4ccc5c(c4s3)C[C@](C)(CO)O5)cc(C)cc2n1` (single isomer, unassigned) [Example 188], the IC50 came out at 130 nM.

For `COc1cnc2c(-c3nc4cc(F)c5c(c4s3)[C@@H](C)[C@H](CO)O5)cc(C)cc2n1` (single isomer, unassigned) [Example 201], the 50% inhibitory concentration (IC50) came to 7.8 nM.

As for `COc1cnc2c(-c3nc4cc(F)c5c(c4s3)C(C)(C)[C@H](CO)O5)cc(C)cc2n1` (single isomer, unassigned) [Example 206], the IC50 came out at 370 nM.

On to `COc1cnc2c(-c3nc4ccc5c(c4s3)C[C@@H]([C@@H](C)O)O5)cc(C)cc2n1` (single isomer, unassigned) [Example 243], for which the half-inhibitory concentration (IC50) amounted to 9.7 nM.

Take `COc1cnc2c(-c3nc4c(C(O)C5(C(F)(F)F)CCC5)cc5c(c4s3)OCCO5)cc(C)cc2n1` (single isomer, unassigned) [Example 265, (2-(2-methoxy-7-methylquinoxalin-5-yl)-7,8-dihydro-[1,4]dioxino[2′,3′:3,4]benzo[1,2-d]thiazol-4-yl)(1-(trifluoromethyl)cyclobutyl)methanol]: the IC50 was determined as 1.9 nM.

For `COc1cnc2c(-c3nc4c(C(O)C(C)(C)C)cc5c(c4s3)OCCO5)cc(Cl)cc2c1` (single isomer, unassigned) [Example 274, 1-(2-(6-chloro-3-methoxyquinolin-8-yl)-7,8-dihydro-[1,4]dioxino[2′,3′:3,4]benzo[1,2-d]thiazol-4-yl)-2,2-dimethylpropan-1-ol], the half-maximal inhibitory concentration (IC50) worked out at 5 nM.

On to `COc1cnc2c(-c3nc4c(C(O)C(C)(C)C)cc5c(c4s3)OCCO5)cc(C)cc2n1` (single isomer, unassigned) [Example 277, 1-(2-(2-methoxy-7-methylquinoxalin-5-yl)-7,8-dihydro-[1,4]dioxino[2′,3′:3,4]benzo[1,2-d]thiazol-4-yl)-2,2-dimethylpropan-1-ol], for which the half-maximal inhibitory concentration (IC50) was 2.3 nM.

Turning to `COc1ccc(NC(=O)OC[C@H]2COc3c(cc(Cl)c4nc(-c5cc(C)cc6nc(OC)cnc56)sc34)O2)cn1` [Example 1, (R)-(4-chloro-2-(2-methoxy-7-methylquinoxalin-5-yl)-7,8-dihydro-[1,4]dioxino[2′,3′:3,4]benzo[1,2-d]thiazol-7-yl)methyl (6-methoxypyridin-3-yl)carbamate], the concentration for half-maximal inhibition (IC50) was 1.6 nM.

`COc1cnc2c(-c3nc4c(C)cc5c(c4s3)OCC(COC(=O)Nc3ccnc(O)c3)O5)cc(C)cc2n1` (stereo not drawn) [Example 3, (2-(2-methoxy-7-methylquinoxalin-5-yl)-4-methyl-7,8-dihydro-[1,4]dioxino[2′,3′:3,4]benzo[1,2-d]thiazol-7-yl)methyl (2-hydroxypyridin-4-yl)carbamate]: the concentration for half-maximal inhibition (IC50) was 12 nM.

For `COc1cnc2c(-c3nc4c(C)cc5c(c4s3)OCC(COC(=O)Oc3cccnc3)O5)cc(C)cc2n1` (stereo not drawn) [Example 6, (2-(2-methoxy-7-methylquinoxalin-5-yl)-4-methyl-7,8-dihydro-[1,4]dioxino[2′,3′:3,4]benzo[1,2-d]thiazol-7-yl)methyl pyridin-3-yl carbonate], the 50% inhibitory concentration (IC50) was determined as 10 nM.

As to `COc1cnc2c(-c3cc4c5c(cc(Cl)c4o3)O[C@@H](COC(=O)Nc3ccc(C)nc3)CO5)cc(C)cc2n1` [Example 7, (R)-(6-chloro-8-(2-methoxy-7-methylquinoxalin-5-yl)-2,3-dihydro-[1,4]dioxino[2,3-e]benzofuran-3-yl)methyl (6-methylpyridin-3-yl)carbamate], the IC50 turned out to be 1 nM.

For the molecule `COc1cnc2c(-c3cc4c5c(cc(Cl)c4o3)O[C@@H](COC(=O)Nc3ccnc(C)c3)CO5)cc(C)cc2n1` [Example 8, (R)-(6-chloro-8-(2-methoxy-7-methylquinoxalin-5-yl)-2,3-dihydro-[1,4]dioxino[2,3-e]benzofuran-3-yl)methyl (2-methylpyridin-4-yl)carbamate], the half-maximal inhibitory concentration (IC50) is 1.4 nM.

As for `COc1ccc(NC(=O)OC[C@H]2COc3c(cc(Cl)c4oc(-c5cc(C)cc6nc(OC)cnc56)cc34)O2)cn1` [Example 9, (R)-(6-chloro-8-(2-methoxy-7-methylquinoxalin-5-yl)-2,3-dihydro-[1,4]dioxino[2,3-e]benzofuran-3-yl)methyl (6-methoxypyridin-3-yl)carbamate], the half-maximal inhibitory concentration (IC50) was 1.8 nM.

As for `COc1cnc2c(-c3cc4c5c(cc(Cl)c4o3)O[C@@H](COC(=O)Nc3cccnc3)CO5)cc(C)cc2n1` [Example 10, (R)-(6-chloro-8-(2-methoxy-7-methylquinoxalin-5-yl)-2,3-dihydro-[1,4]dioxino[2,3-e]benzofuran-3-yl)methyl pyridin-3-ylcarbamate], the IC50 is 8.5 nM.

As to `COc1cnc2c(-c3cc4c5c(ccc4o3)O[C@@H](COC(=O)Nc3ccc(C)nc3)CO5)cc(C)cc2n1` [Example 11, (R)-(8-(2-methoxy-7-methylquinoxalin-5-yl)-2,3-dihydro-[1,4]dioxino[2,3-e]benzofuran-3-yl)methyl (6-methylpyridin-3-yl)carbamate], the IC50 worked out at 1.3 nM.

Regarding `COc1cnc2c(-c3cc4c5c(ccc4o3)O[C@@H](COC(=O)Nc3ccnc(C)c3)CO5)cc(C)cc2n1` [Example 12, (R)-(8-(2-methoxy-7-methylquinoxalin-5-yl)-2,3-dihydro-[1,4]dioxino[2,3-e]benzofuran-3-yl)methyl (2-methylpyridin-4-yl)carbamate], the IC50 was 3.8 nM.

For the molecule `COc1ccc(NC(=O)OC[C@H]2COc3c(ccc4oc(-c5cc(C)cc6nc(OC)cnc56)cc34)O2)cn1` [Example 13, (R)-(8-(2-methoxy-7-methylquinoxalin-5-yl)-2,3-dihydro-[1,4]dioxino[2,3-e]benzofuran-3-yl)methyl (6-methoxypyridin-3-yl)carbamate], the 50% inhibitory concentration (IC50) is 1.2 nM.

In the case of `COc1cnc2c(-c3cc4c5c(cc(C)c4o3)O[C@@H](COC(=O)Nc3ccc(C)nc3)CO5)cc(C)cc2n1` [Example 14, (R)-(8-(2-methoxy-7-methylquinoxalin-5-yl)-6-methyl-2,3-dihydro-[1,4]dioxino[2,3-e]benzofuran-3-yl)methyl (6-methylpyridin-3-yl)carbamate], the IC50 worked out at 2.9 nM.

Take `COc1cnc2c(-c3cc4c5c(cc(C)c4o3)O[C@@H](COC(=O)Nc3ccnc(C)c3)CO5)cc(C)cc2n1` [Example 15, (R)-(8-(2-methoxy-7-methylquinoxalin-5-yl)-6-methyl-2,3-dihydro-[1,4]dioxino[2,3-e]benzofuran-3-yl)methyl (2-methylpyridin-4-yl)carbamate]: the concentration for half-maximal inhibition (IC50) was 3.2 nM.
